Measurements as given in US20040132970A1, “Dermaseptin-derived peptides and their use in delivery systems” (priority 2002, published 2004).
“Also recorded” adds a separate entry of the source. Ends that are not written are not given here.

Experiments:
[1] = test system: HeLa cells; experiment: Penetration of Lissamine Rhodamine-labeled synthetic peptides into intact cultured cells, fluorescence microscopy; type: cell-based; conditions: for cell penetration and intracellular localization in intact HeLa cells (FIG. 1): 37° C., 5 μM; for cell penetration and intracellular localization in intact HeLa cells (FIG. 1) / cell penetration and nuclear accumulation in intact HeLa cells (FIG. 3): 30 minutes; for co-penetration of free fluorophore LR into intact HeLa cells: mixture of unlabeled S413 and free LR, versus LR alone; for cell penetration and nuclear accumulation in intact HeLa cells (FIG. 3): 10 μM Rev at 37° C., 2 μM of RR-S413
Procedure: HeLa cells (3×10^4 per well) were cultured on eight-well Lab-Teck cover slips (Nunc Inc.) or on 10-mm cover slips to sub confluent density. Following the removal of the culture medium, the cells were washed three times with PBS and then exposed to different concentrations of the Lissamine Rhodamine-labeled peptides at 37° C. or at 4° C. At the end of the incubation period the cells were washed three times in PBS and fixed in 4% (v/v) formaldehyde dissolved in PBS. Fixed cells were examined by fluorescence microscopy (Zeiss Germany, a 40× objective; Apoplan) or by confocal microscopy using an MRC 1024 confocal imaging system (Bio-Rad). The microscope (Axiovert 135M; Zeiss Germany, a 63× objective; Apoplan; NA 1.4) was equipped with an argon ion laser for Rhodamine excitation at 514 nm (emission 580).
Following fixation, the various samples were examined by fluorescence microscopy.
Synthetic peptides bearing Tat and Rev ARM sequences were synthesized and fluorescently labeled as described. […]

[2] = test system: permeabilized HeLa cells; experiment: Nuclear uptake in digitonin-permeabilized cells, fluorescence microscopy; type: cell-based; design: key to Nuclear Import of PV-S413 / Nuclear uptake: +: Most of the nuclei in the microscopic fields are highly fluorescent; −: No fluorescence in the nuclei; +/−: Most of the nuclei are very weakly fluorescent
Procedure: FIGS. 2a-d: Nuclear import of PV-S413 in permeabilized HeLa cells: fluorescence microscopy observations. All experimental conditions were as described in Experimental Procedures and in legend to Table 3. Digitonin permeabilized HeLa cells were incubated in the presence of reticulocyte extract at 30° C. for 1 hour with 1 μM of the following:
HeLa cells were cultivated on 10 mm cover slips to sub confluent density and then permeabilized with digitonin as described previously [Friedler, A. et al. (1998) Biochemistry 37, 5616-5622]. The cells were incubated with the peptides and nuclear import was followed by fluorescence microscopy as described [Friedler, A. et al. (1998) id ibid.].
Experimental conditions of nuclear import in digitonin-permeabilized cells (complete system) were as described. PV-S413 was used at 1 mM and all incubations were performed at 37° C. in the presence of reticulocyte lysate, unless otherwise indicated. Additions: GTPγS (20 mM) and the following unlabeled peptides SV40 T-Ag NLS, S413 and PV-S413 at a ratio of 1:100 (mol/mol).
Unlabeled peptides RR-S413, SV40 T-Ag-NLS, Rev and Tat ARM were added at a peptide ratio of 1:100 (mole/mole).

[3] = test system: cultured cells; experiment: Effect of the peptides on cell viability (Trypan Blue); type: cell-based; conditions: for toxicity to cells, Trypan Blue test: at the concentrations used, 37° C., 30 minutes; for toxicity to the cells (cell viability): at concentrations up to about 15 μM
Procedure: Following incubation at 37° C. for 30 minutes 100 ml, Trypan Blue solution was added (0.4% in HBSS buffer; Sigma) and HBSS buffer (5:3) and viable cells counted after 5 minutes of continuous stirring. Cell death was not greater than 20%.

[4] = test system: HeLa cells; experiment: Microinjection of the peptides into HeLa cells, nuclear import; type: cell-based; conditions: 1 μM, 2 hours after incubation at 37° C.
Procedure: FIGS. 4a-d: Nuclear import of S413 and RR-S413 in microinjected cells. HeLa cells were microinjected with the fluorescently labeled peptides S413 and RR-S413 (1 μM). The injection mixture also included fluorescently labeled BSA as an injection control (data not shown). Photos were taken 2 hours after incubation at 37° C.
HeLa cells were microinjected with either S413 or with RR-S413 using the CompInject AIS2 automated microinjection system (Cell Biology Trading, Hamburg, Germany) as described previously [Neumann, M. et al. (2001) J. Cell Sci. 114, 1717-29] using a microinjection method developed by Graessmann et al., as described [Graessmann, M. and Graessmann, A. (1983) Methods Enzymol. 101, 482-492].

[5] = test system: erythrocytes; conditions: cited from earlier work

## PKKKRKVALWKTLLKKVLKA-NH2 [PV-S413]
[1]; 4° C.
  intracellular localization in intact HeLa cells at 4° C.: retained in the cytoplasm
[1]
  cell penetration and intracellular localization in intact HeLa cells (FIG. 1): cell penetration and accumulation within the cells' nuclei
[2]
  ATP dependence of nuclear import in permeabilized HeLa cells: ATP-dependent
[2]; 4° C.
  nuclear import in permeabilized HeLa cells at 4° C.: did not occur
[2]; (i) Complete System: 1 mM peptide, 37° C., reticulocyte lysate
  Nuclear Import of PV-S413: +
[2]; (ii) Hexokinase (ATP depleted system)
  Nuclear Import of PV-S413: −
[2]; (iii) As (i), in the absence of reticulocyte extract
  Nuclear Import of PV-S413: −
[2]; (iv) As (i) at 4° C.
  Nuclear Import of PV-S413: −
[2]; (v) As (i) + GTPγS (20 mM)
  Nuclear Import of PV-S413: −
[2]; (vi) As (i) + unlabeled SV40-NLS, 1:100 (mol/mol)
  Nuclear Import of PV-S413: +/−
[2]; (vii) As (i) + unlabeled S413, 1:100 (mol/mol)
  Nuclear Import of PV-S413: +
[2]; (viii) As (i) + unlabeled PV-S413, 1:100 (mol/mol)
  Nuclear Import of PV-S413: +/−
[2]; permeabilized HeLa cells
  effect of GTPγS, WGA and excess of free unlabeled SV40 T-Ag-NLS peptide on nuclear import: inhibited
[3]
  toxicity to cells, Trypan Blue test: not toxic

## VKRKKKPALWKTLLKKVLKA-NH2 [rPV-S413]
[1]
  cell penetration and intracellular localization in intact HeLa cells (FIG. 1): very little, if any, accumulation within the cells' nuclei/nucleoli
[2]; both in the presence and in the absence of the cytosolic extract
  nuclei accumulation in permeabilized HeLa cells: either did not accumulate or showed poor nuclei accumulation

## CCN(CC)c1ccc2c(-c3ccc(S(=O)(=O)O)cc3S(=O)(=O)[O-])c3ccc(=[N+](CC)CC)cc-3oc2c1 [L-Rhodamine, Lissamine Rhodamine, reference compound]
[1]
  co-penetration of free fluorophore LR into intact HeLa cells: did not occur

## ALWKTLLKKVLKA-NH2 [Peptide S413]
[1]; 1 μM of the peptide, either at 37° C. or at 4° C.
  time of incubation within which penetration into cultured HeLa cells occurs: ≤ 5 min
[1]
  cell penetration and intracellular localization in intact HeLa cells (FIG. 1): accumulated within the cells' cytoplasm and not in the cells' nuclei
  co-penetration of free fluorophore LR into intact HeLa cells: a few intracellular fluorescent dots
[1]; 24 hours after incubation at 37° C.
  nuclear localization after long incubation: very little, if any, nuclear localization
[1]; ATP depleted cells
  penetration into intact cells in ATP depleted cells: occurred
[2]; 1 μM, reticulocyte extract, 30° C., 1 hour
  penetration into nuclei of digitonin permeabilized HeLa cells (FIG. 2): did not penetrate
[3]
  toxicity to cells, Trypan Blue test: non-toxic
[4]
  localization following microinjection into intact HeLa cells (FIG. 4): retained in the cytoplasm; also recorded: remained in the cytoplasm

## ALWMTLLKKVLKAAAKAALNAVLVGANA-COOH (ALWMTLLKKVLKAAAKAALNAVLVGANA-OH) [Peptide S4, reference compound]
[5]
  toxicity to erythrocytes: highly toxic

## ALWKTLLKKVLKAPKKKRKV-NH2 [Peptide S413-PV]
[3]
  toxicity to cells, Trypan Blue test: not toxic

## GRKKRRQRRRPPQC-NH2 [Tat-ARM, reference compound]
[3]
  toxicity to the cells (cell viability): not toxic

## RQARRNRRRALWKTLLKKVLKA-NH2 [RR-S413]
[1]
  cell penetration and nuclear accumulation in intact HeLa cells (FIG. 3): readily penetrated into intact HeLa cells and accumulated—within a short period of time—within the nuclei of these cells
[2]; ATP depleted cells
  Nuclear uptake: −
[2]; In the absence of cytosolic factors
  Nuclear uptake: +
[2]; In the presence of cytosolic factors
  Nuclear uptake: +/−
[2]; In the presence of unlabeled RR-S413, 1:100 (mole/mole)
  Nuclear uptake: +/−
[2]; In the presence of unlabeled Rev-ARM, 1:100 (mole/mole)
  Nuclear uptake: −
[2]; In the presence of unlabeled SV40 T-Ag NLS, 1:100 (mole/mole)
  Nuclear uptake: +
[2]; In the presence of unlabeled Tat-ARM, 1:100 (mole/mole)
  Nuclear uptake: +/−
[2]; Incubation in 4° C.
  Nuclear uptake: −
[2]; no addition of cytosolic extract required
  nuclear import in digitonin permeabilized HeLa cells: Nuclear import was also observed
[3]
  toxicity to the cells (cell viability): not toxic
[4]
  localization following microinjection into intact HeLa cells (FIG. 4): accumulated within the intranuclear space; also recorded: accumulated in the nuclei

## RQARRNRRRC-NH2 [Rev-ARM, reference compound]
[1]
  cell penetration and nuclear accumulation in intact HeLa cells (FIG. 3): cell permeable
[3]
  toxicity to the cells (cell viability): not toxic
